According to US6537545B1, “Use of corneal hardening agents in enzymeorthokeratology” (ISTA Pharmaceuticals, Inc., priority 1998, dated 2003):

How the values were obtained:
[1] = system: eyes of myopic human subjects; test: Mild myopia study, group II: 500 IU hyaluronidase, corrective lenses, 3% glyceraldehyde (Example 9); format: in vivo; conditions: 500 IU hyaluronidase and corrective lenses
From the text: (§1) Given the favorable results obtained in Example 8, an additional study was undertaken to test the safety and efficacy of the method of the present invention using a larger group of subjects. In this study, a group of subjects were selected and randomly separated into three test groups to test the safety and efficacy of using hyaluronidase and a glyceraldehyde solution for treating subjects with sub-optimal visual acuity. Groups one and two received an intrastromal injection of hyaluronidase (50 and 500 IU, respectively), while group three received a control injection of saline.
(§2) Following a two week incubation period after the injection, the three groups were fitted with corrective lenses to optimize the visual acuity of the subjects. The corrective lenses were left in place for a period of time sufficient to alter the shape of the subjects' eyes so as to achieve an optimal visual acuity. This period of time was generally 2 days in length. Once an acceptable visual acuity was achieved, the subjects in the three groups received a topical 3% glyceraldehyde solution in the form of ophthalmic drops four times per day while wearing the corrective lenses. The glyceraldehyde treatment was generally administered for one month. Lens wear occurred from 8 to 12 hours during the day.
(§3) At the end of the treatment period both the lens wear and the glyceraldehyde solution administration was terminated. The general health and visual acuity of the subjects was monitored from 3 to 5 months following treatment termination.
The subjects of group II were treated as those in group I in preparation for their participation in the study reported here. Before beginning the experimental protocol, test subjects were examined initially to establish a baseline from which the future results of the treatment were compared.
Following the establishment of a baseline reading, group II subjects were fitted with contact lenses and wore the corrective lenses at night for a period of two (2) to seven (7) days or until an acceptable visual acuity (approximately 20/20) was achieved. Group II test subjects received 500 IU of hyaluronidase by injection as compared to the 50 IU of group I. Two groups of subjects received 500 IU of hyaluronidase. The results obtained from the first group are shown in Table IIIA and the results from the second group are shown in Table IIIA and are identified in the table by the notation Gr. VI. There were no meaningful differences in the treatment protocols between these two groups. Subjects achieving an acceptable visual acuity received the topical 3% glyceraldehyde solution in the form of ophthalmic drops four times per day (08:00, 12:00, 16:00, and 20:00) for a period of 1 month in conjunction with daytime lens wear for stabilization. During this period, lens were occurred for approximately 8-12 hours per day and there was no nocturnal lens wear.
The subjects were examined periodically during the glyceraldehyde treatment to monitor changes in the health of the treated eyes.
(§4) At the end of the treatment period, the stabilizing lens were removed and the administration of the 3% glyceraldehyde solution was terminated. Following termination of the treatment, the subjects were examined immediately after treatment was terminated, once a week for the first four weeks after termination, and then monthly to measure changes in the visual acuity of the treated eyes. The health of the eye was also monitored. Sequelae characterized by the appearance or worsening of serious ocular symptoms or slit-lamp findings observed during these examinations were assessed. The proportions of subjects with such findings were analyzed.

cornea = test: Corneal elasticity, recovery from indentation by spherical glass indentor (Example 7); format: in vivo, human; conditions: eyes injected with hyaluronidase solution
Protocol: A precision spherical glass indentor was used to contact the corneal surface of subjects treated with the methods of the present invention to measure changes in corneal elasticity. The method used involved the application of the indentor, in the form of a small spherical ball to gently deflect into a test cornea to establish an initial deflection value. Measurements were taken by using an interferometer to view the deflection. Following this application, the relaxation period was measured by observing the change in the impression made by the indentor.
The indentation range of movement was characterized using a precision linear variable differential transducer (LVDT) device that measured the linear travel of a stage carrying the indentor probe. The average travel distance of the probe was established at approximately 700 micrometers. The contact depth of the indentor probe was measured by evaluating the corneal surface immediately after indentation and measuring the local height values caused by the probe contact. This value was measured to range from 266 to 300 micrometers.
A digital timer was used to mark the beginning and ending times during observation. Changes in the impression were readily observed during this period. The final end point was considered to be when the local fringe disturbance was recovered blending with the undisturbed neighboring fringes. […] However, given the time scales involved, the value of this error is considered to be small.
The method of inducing corneal inflection involved first contacting the test corneal with the indentor. After the initial contact with the cornea was established, the probe was moved forward into the cornea to a predetermined distance. Seven hundred microns was used to achieve adequate deflection. Topography was taken immediately after the deflection to record the impression made in the cornea. Observations of the cornea were then made at one (1) minute intervals to note the change in the impression made. […] Another topography was done after five (5) minutes to record the final condition of the impression. […]

[2] = system: eyes of myopic human subjects; test: Mild myopia study, group I: 50 IU hyaluronidase, corrective lenses, 3% glyceraldehyde (Example 9); format: in vivo; conditions: 50 IU hyaluronidase and corrective lenses
From the text: as §1, §2, §3
Before beginning the experimental protocol, test subjects were examined initially to establish a baseline from which the future results of the treatment were compared. For each subject a medical history was taken and a detailed examination of the eyes was also performed. The eyes of each subject were tested to determine: refraction cell count, intraocular pressure (IOP), pachymetry, corneal topography and corneal elasticity. A slit-lamp examination was also performed to establish the health of the eye. Also, the presence of any general or ocular discomfort of the subjects was noted.
Following the establishment of a baseline reading, group 1 subjects were administered a single intrastromal injection of 50 IU hyaluronidase prior to the orthokeratology treatment. Following 14 days of incubation, the subjects were fitted with corrective contact lenses for overnight wear. Subjects wore the corrective lenses night and day for a period of two (2) to seven (7) days or until visual 20/20 visual acuity was achieved. Subjects achieving an acceptable visual acuity (approximately 20/20) received an application of the topical 3% glyceraldehyde solution ophthalmic drops four times per day (8:00, 12:00, 16:00, and 20:00) for a period of 1 month in conjunction with daytime lens wear for stabilization. Lens wear lasted for 8 to 12 hours per day. The subjects were examined periodically during the glyceraldehyde treatment to monitor changes in the health of the treated eyes.
as §4, with “examinations was” for “examinations were”

[3] = system: eye of myopic human patient; test: Safety and efficacy of hyaluronidase and topical 3% glyceraldehyde solution, myopia in a human patient (Example 8); format: in vivo; conditions: one subject, baseline UVA 20/300; 50 IU hyaluronidase, 7 days incubation, 7 days corrective lens wear, before drops
Protocol: In this study, a single subject was selected to test the safety and efficacy of using hyaluronidase and a glyceraldehyde solution to treat sub-optimal visual acuity. In this study, the subject was first medically evaluated and a baseline was established. A medical history of the subject was taken and a detailed examination of the subject's eyes was also performed. The subject's eyes were tested to determine: refraction, cell count, intraocular pressure (IOP), pachymetry, corneal topography and corneal elasticity. A slit-lamp examination was also performed to establish the health of the eyes. Also, the presence of any general or ocular discomfort of the subject was noted.
Following the establishment of a baseline reading (UVA 20/300), the subject was administered a single intrastromal injection of 50 IU hyaluronidase prior to the orthokeratology treatment. Following 7 days of incubation of the subject's eyes with the injected material, the subject was fitted with corrective contact lenses for overnight wear. The subject wore the corrective lenses day and night for a period of seven (7) days. At this point the subject's visual acuity was 20/15. […] The visual acuity of the subject was then monitored for 196 days to determine the effect of the treatment on the unaided visual acuity of the subject;

## hyaluronidase
[1]; subject 013 (Table IIIA)
  visual acuity achieved before glyceraldehyde drops: 20/40
[1]; subject 104 (Table IIIB)
  visual acuity achieved before glyceraldehyde drops: 20/50
cornea
  change in corneal elasticity vs baseline: significant reduction in corneal elasticity
[2]; all subjects except ARR/001 and JLV/015, before drops
  visual acuity achieved by initial orthokeratological treatment: 20/20
[2]; subject 001, before glyceraldehyde drops
  visual acuity achieved by initial orthokeratological treatment: 20/25
[2]; subject 015, before glyceraldehyde drops
  visual acuity achieved by initial orthokeratological treatment: 20/40
[3]
  visual acuity: 20/15
